Legend:
Test in all cases: radiometric filter-binding kinase assay, Kinase HotSpot
LIMK1 (human) = LIMK1 (human) (UniProt P53667); settings: compound 0.5 µM; ATP 10 µM
MAPKAPK5 (human) = MAPKAPK5 (human) (UniProt Q8IW41); settings: compound 0.5 µM; ATP 10 µM
LCK (human) = LCK (human) (UniProt P06239); settings: compound 0.5 µM; ATP 10 µM
BRAF (human) = BRAF (human) (UniProt P15056); settings: compound 0.5 µM; ATP 10 µM
IGF1R (human) = IGF1R (human) (UniProt P08069); settings: compound 0.5 µM
PRKCB1 (human) = PRKCB1 (human) (UniProt P05771); settings: compound 0.5 µM; ATP 10 µM
NUAK1 (human) = NUAK1 (human) (UniProt O60285); settings: compound 0.5 µM; ATP 10 µM
ULK1 (human) = ULK1 (human) (UniProt O75385); settings: compound 0.5 µM; ATP 10 µM
CHEK2 (human) = CHEK2 (human) (UniProt O96017); settings: compound 0.5 µM; ATP 10 µM
DAPK2 (human) = DAPK2 (human) (UniProt Q9UIK4); settings: compound 0.5 µM; ATP 10 µM
Sequence of DAPK2 (human) (Q9UIK4 whole entry, looked up): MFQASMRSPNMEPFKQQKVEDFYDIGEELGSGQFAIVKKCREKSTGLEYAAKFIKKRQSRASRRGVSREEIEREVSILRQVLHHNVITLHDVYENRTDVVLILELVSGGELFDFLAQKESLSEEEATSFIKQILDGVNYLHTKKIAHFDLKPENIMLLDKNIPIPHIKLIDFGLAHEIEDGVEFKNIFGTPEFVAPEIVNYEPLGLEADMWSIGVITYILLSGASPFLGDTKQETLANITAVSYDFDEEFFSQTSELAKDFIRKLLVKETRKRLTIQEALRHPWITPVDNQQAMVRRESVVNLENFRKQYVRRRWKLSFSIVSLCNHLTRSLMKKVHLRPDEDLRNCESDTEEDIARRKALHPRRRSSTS

CLK4 (human) = CLK4 (human) (UniProt Q9HAZ1); settings: compound 0.5 µM; ATP 10 µM
AURKC (human) = AURKC (human) (UniProt Q9UQB9); settings: compound 0.5 µM; ATP 10 µM
SRMS (human) = SRMS (human) (UniProt Q9H3Y6); settings: compound 0.5 µM; ATP 10 µM
FGR (human) = FGR (human) (UniProt P09769); settings: compound 0.5 µM; ATP 10 µM
CSNK1G3 (human) = CSNK1G3 (human) (UniProt Q9Y6M4); settings: compound 0.5 µM; ATP 10 µM
Sequence of CSNK1G3 (human) (Q9Y6M4 whole entry, looked up): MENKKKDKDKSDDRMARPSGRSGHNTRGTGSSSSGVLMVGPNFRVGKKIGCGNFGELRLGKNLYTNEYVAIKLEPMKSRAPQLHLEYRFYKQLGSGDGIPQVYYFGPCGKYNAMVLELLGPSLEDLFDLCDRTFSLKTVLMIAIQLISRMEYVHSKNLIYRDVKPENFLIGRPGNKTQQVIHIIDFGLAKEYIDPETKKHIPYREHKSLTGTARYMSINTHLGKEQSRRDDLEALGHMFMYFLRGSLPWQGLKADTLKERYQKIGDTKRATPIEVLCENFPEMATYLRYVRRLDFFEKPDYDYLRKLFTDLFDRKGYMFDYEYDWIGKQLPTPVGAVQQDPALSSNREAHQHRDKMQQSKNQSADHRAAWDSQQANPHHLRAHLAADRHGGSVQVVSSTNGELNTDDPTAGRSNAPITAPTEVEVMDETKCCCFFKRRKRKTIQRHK

MST1R (human) = MST1R (human) (UniProt Q04912); settings: compound 0.5 µM; ATP 10 µM
Sequence of MST1R (human) (Q04912 whole entry, looked up): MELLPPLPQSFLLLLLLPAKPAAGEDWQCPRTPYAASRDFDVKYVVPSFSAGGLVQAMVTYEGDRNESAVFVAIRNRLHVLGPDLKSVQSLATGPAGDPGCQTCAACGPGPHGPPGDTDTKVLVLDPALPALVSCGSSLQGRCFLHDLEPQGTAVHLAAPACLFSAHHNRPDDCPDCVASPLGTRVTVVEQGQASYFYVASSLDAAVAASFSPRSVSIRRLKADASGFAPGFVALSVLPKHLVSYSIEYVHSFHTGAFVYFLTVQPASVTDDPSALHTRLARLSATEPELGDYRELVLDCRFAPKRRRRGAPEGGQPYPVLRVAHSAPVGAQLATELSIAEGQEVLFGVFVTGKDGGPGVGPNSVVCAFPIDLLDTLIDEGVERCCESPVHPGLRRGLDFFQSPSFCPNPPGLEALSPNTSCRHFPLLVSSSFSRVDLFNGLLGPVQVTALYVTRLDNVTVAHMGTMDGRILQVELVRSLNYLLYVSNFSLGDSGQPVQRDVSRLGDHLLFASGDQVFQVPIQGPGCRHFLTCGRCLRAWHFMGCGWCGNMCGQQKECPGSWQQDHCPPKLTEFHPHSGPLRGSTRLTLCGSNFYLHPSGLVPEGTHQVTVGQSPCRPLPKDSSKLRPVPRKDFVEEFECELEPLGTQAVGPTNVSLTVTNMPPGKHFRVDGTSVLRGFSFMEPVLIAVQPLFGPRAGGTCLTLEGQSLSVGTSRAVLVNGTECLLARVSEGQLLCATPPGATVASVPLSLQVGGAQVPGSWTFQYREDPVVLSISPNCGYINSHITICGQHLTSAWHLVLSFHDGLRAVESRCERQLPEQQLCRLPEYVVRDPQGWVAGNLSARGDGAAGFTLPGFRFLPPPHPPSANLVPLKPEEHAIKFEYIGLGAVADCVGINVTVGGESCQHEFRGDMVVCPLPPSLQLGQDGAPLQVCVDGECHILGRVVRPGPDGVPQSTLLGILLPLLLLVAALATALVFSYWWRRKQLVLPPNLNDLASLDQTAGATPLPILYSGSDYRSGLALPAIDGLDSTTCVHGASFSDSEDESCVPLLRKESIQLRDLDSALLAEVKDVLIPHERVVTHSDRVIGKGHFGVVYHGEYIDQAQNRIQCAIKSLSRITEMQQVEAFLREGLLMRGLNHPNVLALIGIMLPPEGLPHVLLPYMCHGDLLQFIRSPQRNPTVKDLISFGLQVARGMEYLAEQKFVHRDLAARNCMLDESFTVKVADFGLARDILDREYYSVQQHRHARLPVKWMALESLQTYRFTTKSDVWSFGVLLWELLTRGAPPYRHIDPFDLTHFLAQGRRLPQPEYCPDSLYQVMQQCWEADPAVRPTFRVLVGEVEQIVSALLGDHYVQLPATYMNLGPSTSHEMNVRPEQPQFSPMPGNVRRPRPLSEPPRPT

RPS6KB2 (human) = RPS6KB2 (human) (UniProt Q9UBS0); settings: compound 0.5 µM; ATP 10 µM
WEE1 (human) = WEE1 (human) (UniProt P30291); settings: compound 0.5 µM; ATP 10 µM
MYLK2 (human) = MYLK2 (human) (UniProt Q9H1R3); settings: compound 0.5 µM; ATP 10 µM
EPHA3 (human) = EPHA3 (human) (UniProt P29320); settings: compound 0.5 µM; ATP 10 µM
NEK6 (human) = NEK6 (human) (UniProt Q9HC98); settings: compound 0.5 µM; ATP 10 µM
MAP2K1 (human) = MAP2K1 (human) (UniProt Q02750); settings: compound 0.5 µM; ATP 10 µM
CAMKK2 (human) = CAMKK2 (human) (UniProt Q96RR4); settings: compound 0.5 µM; ATP 10 µM
PDGFRB (human) = PDGFRB (human) (UniProt P09619); settings: compound 0.5 µM; ATP 10 µM
PKN1 (human) = PKN1 (human) (UniProt Q16512); settings: compound 0.5 µM; ATP 10 µM
Sequence of PKN1 (human) (Q16512 whole entry, looked up): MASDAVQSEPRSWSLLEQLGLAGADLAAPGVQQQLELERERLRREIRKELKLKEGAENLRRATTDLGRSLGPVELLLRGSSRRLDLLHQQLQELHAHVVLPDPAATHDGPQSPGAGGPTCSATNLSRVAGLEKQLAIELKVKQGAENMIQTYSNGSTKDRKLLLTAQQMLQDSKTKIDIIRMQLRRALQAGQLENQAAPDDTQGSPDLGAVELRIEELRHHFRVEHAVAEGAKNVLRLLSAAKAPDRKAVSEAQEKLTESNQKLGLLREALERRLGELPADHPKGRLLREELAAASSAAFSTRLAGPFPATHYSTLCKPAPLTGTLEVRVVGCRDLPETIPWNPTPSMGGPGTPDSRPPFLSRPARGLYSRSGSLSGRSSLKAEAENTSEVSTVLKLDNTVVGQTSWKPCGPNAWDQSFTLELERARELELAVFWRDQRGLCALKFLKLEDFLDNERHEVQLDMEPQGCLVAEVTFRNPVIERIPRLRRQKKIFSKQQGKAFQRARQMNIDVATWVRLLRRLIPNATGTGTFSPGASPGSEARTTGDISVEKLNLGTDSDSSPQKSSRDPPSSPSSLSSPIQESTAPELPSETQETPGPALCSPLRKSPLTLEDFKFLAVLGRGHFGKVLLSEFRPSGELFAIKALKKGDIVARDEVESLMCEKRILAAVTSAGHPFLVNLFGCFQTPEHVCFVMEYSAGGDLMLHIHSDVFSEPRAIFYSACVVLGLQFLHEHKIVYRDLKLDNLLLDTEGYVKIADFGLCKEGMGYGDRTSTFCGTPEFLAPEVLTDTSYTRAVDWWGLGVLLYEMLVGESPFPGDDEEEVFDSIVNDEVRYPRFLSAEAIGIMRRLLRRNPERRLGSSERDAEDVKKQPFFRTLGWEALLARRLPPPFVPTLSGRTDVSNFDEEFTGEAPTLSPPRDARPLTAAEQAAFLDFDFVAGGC

FGFR1 (human) = FGFR1 (human) (UniProt P11362); settings: compound 0.5 µM; ATP 10 µM
ITK (human) = ITK (human) (UniProt Q08881); settings: compound 0.5 µM; ATP 10 µM
ABL2 (human) = ABL2 (human) (UniProt P42684); settings: compound 0.5 µM; ATP 10 µM
CDK1 CCNB1 (human) = CDK1 CCNB1 (human) (UniProt P06493+P14635); settings: compound 0.5 µM
ULK2 (human) = ULK2 (human) (UniProt Q8IYT8); settings: compound 0.5 µM; ATP 10 µM
CAMK2D (human) = CAMK2D (human) (UniProt Q13557); settings: compound 0.5 µM; ATP 10 µM
Sequence of CAMK2D (human) (Q13557 whole entry, looked up): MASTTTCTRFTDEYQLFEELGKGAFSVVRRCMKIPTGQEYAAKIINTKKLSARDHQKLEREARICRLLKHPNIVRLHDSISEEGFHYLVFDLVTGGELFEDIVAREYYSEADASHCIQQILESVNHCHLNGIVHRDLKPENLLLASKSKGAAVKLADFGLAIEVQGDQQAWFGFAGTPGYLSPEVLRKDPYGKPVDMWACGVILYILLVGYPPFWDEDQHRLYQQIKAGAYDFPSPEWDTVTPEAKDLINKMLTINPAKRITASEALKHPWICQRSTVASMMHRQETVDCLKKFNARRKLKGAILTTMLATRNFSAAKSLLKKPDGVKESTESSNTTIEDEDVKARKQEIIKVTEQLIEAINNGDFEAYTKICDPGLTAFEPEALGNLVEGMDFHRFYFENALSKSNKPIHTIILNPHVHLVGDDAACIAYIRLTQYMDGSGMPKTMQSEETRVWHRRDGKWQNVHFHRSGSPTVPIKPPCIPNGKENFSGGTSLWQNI

EGFR (human) = EGFR (human) (UniProt P00533); settings: compound 0.5 µM; ATP 10 µM
HIPK4 (human) = HIPK4 (human) (UniProt Q8NE63); settings: compound 0.5 µM; ATP 10 µM
Sequence of HIPK4 (human) (Q8NE63 whole entry, looked up): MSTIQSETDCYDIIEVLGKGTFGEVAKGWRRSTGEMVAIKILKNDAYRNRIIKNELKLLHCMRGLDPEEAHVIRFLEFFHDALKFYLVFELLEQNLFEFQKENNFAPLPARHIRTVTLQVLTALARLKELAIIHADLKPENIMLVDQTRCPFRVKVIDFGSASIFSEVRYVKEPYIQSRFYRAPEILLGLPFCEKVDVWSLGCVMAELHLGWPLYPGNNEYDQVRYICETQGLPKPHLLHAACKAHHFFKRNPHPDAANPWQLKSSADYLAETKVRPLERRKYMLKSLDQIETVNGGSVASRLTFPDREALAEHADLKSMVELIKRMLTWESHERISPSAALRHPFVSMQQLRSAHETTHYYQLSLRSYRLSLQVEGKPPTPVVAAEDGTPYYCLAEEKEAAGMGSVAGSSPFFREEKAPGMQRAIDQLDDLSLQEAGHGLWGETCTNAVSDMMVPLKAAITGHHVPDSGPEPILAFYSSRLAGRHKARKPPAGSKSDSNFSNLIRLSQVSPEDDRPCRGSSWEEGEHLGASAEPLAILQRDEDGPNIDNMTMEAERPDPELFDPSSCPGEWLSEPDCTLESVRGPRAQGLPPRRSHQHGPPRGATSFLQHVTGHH

IRAK4 (human) = IRAK4 (human) (UniProt Q9NWZ3); settings: compound 0.5 µM; ATP 10 µM
PRKCZ (human) = PRKCZ (human) (UniProt Q05513); settings: compound 0.5 µM; ATP 10 µM
TGFBR2 (human) = TGFBR2 (human) (UniProt P37173); settings: compound 0.5 µM; ATP 10 µM

Sequence of LIMK1 (human) (P53667 whole entry, looked up): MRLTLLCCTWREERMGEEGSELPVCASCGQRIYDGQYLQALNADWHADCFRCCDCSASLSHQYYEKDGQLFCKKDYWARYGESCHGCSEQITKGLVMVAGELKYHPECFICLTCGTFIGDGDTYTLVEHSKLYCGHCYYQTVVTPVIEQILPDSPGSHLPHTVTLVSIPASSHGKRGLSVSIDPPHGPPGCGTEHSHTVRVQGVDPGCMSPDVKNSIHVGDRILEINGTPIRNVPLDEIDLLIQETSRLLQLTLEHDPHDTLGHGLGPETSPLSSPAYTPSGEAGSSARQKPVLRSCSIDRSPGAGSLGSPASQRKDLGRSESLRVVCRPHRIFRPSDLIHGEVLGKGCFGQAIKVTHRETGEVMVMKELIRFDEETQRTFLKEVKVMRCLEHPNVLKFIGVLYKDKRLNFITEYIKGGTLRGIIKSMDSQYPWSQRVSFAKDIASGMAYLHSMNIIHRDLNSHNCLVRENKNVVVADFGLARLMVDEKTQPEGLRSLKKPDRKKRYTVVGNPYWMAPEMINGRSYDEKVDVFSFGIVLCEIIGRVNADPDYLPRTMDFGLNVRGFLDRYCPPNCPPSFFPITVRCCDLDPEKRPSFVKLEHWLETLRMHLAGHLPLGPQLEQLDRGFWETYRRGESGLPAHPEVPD

| SMILES | residual activity (LIMK1 (human)) [%] | residual activity (MAPKAPK5 (human)) [%] | residual activity (LCK (human)) [%] | residual activity (BRAF (human)) [%] | residual activity (PRKCB1 (human)) [%] | residual activity (NUAK1 (human)) [%] | residual activity (ULK1 (human)) [%] | residual activity (CHEK2 (human)) [%] | residual activity (DAPK2 (human)) [%] | residual activity (CLK4 (human)) [%] | residual activity (AURKC (human)) [%] | residual activity (SRMS (human)) [%] | residual activity (FGR (human)) [%] | residual activity (CSNK1G3 (human)) [%] | residual activity (MST1R (human)) [%] | residual activity (RPS6KB2 (human)) [%] | residual activity (WEE1 (human)) [%] | residual activity (MYLK2 (human)) [%] | residual activity (EPHA3 (human)) [%] | residual activity (NEK6 (human)) [%] | further results |
| --- | --- | --- | --- | --- | --- | --- | --- | --- | --- | --- | --- | --- | --- | --- | --- | --- | --- | --- | --- | --- | --- |
| N#CCCc1ccc2c(c1)-c1[nH]c3ccc([N+](=O)[O-])cc3c1CC(=O)N2 | 99.9 | 94.3 | 78.2 | 99.3 | 97.4 | 14.1 | 94.2 | 12.6 | 96.5 | 77.1 | 83.6 | 78.6 | 31 | 89.7 | 107 | 96.1 | 100 | 93.9 | 93.9 | 101 | residual activity (IGF1R (human); ATP 10 µM): 92.2%; residual activity (MAP2K1 (human)): 97.1%; residual activity (CAMKK2 (human)): 86.8%; residual activity (PDGFRB (human)): 83.9%; residual activity (PKN1 (human)): 78%; residual activity (FGFR1 (human)): 91.9%; residual activity (ITK (human)): 99.9%; residual activity (ABL2 (human)): 49.8%; residual activity (CDK1 CCNB1 (human); ATP 10 µM): 9.89%; residual activity (ULK2 (human)): 73.1%; residual activity (CAMK2D (human)): 57.8%; residual activity (EGFR (human)): 94.4%; residual activity (HIPK4 (human)): 113%; residual activity (IRAK4 (human)): 155%; residual activity (PRKCZ (human)): 83.4%; residual activity (TGFBR2 (human)): 10.1% |
| O=c1[nH]c2ccccc2n1C1CCN(Cc2ccc(-c3nc4cc5[nH]cnc5cc4nc3-c3ccccc3)cc2)CC1 | 110 | 97.4 | 98.2 | 101 | 108 | 103 | 96.7 | 100 | 99 | 92.8 | 96 | 93.1 | 95.7 | 96.5 | 111 | 102 | 93.9 | 103 | 71.9 | 98.2 | residual activity (IGF1R (human)): 91.2%; residual activity (MAP2K1 (human)): 96.8%; residual activity (CAMKK2 (human)): 112%; residual activity (PDGFRB (human)): 102%; residual activity (PKN1 (human)): 90.3%; residual activity (FGFR1 (human)): 102%; residual activity (ITK (human)): 99.8%; residual activity (ABL2 (human)): 96.8%; residual activity (CDK1 CCNB1 (human)): 85%; residual activity (CAMK2D (human)): 97.7%; residual activity (EGFR (human)): 99.8%; residual activity (HIPK4 (human)): 99.3%; residual activity (IRAK4 (human)): 201%; residual activity (PRKCZ (human)): 102%; residual activity (TGFBR2 (human)): 95.5% |
| Cc1cc(Nc2nc(-c3ccccc3)nc3ccccc23)n[nH]1 | 59.6 | 93.2 | 75.6 | 99.5 | 99.9 | 3.88 | 81.1 | 31.3 | 89.5 | 34.3 | 51.8 | 98.7 | 54.8 | 75 | 96.6 | 99.7 | 88 | 62.8 | 88.9 | 93.9 | residual activity (IGF1R (human); ATP 10 µM): 70.8%; residual activity (MAP2K1 (human)): 91.6%; residual activity (CAMKK2 (human)): 88.6%; residual activity (PDGFRB (human)): 55.4%; residual activity (PKN1 (human)): 89.9%; residual activity (FGFR1 (human)): 48.8%; residual activity (ITK (human)): 45.4%; residual activity (ABL2 (human)): 42.5%; residual activity (CDK1 CCNB1 (human); ATP 10 µM): 76%; residual activity (ULK2 (human)): 95.1%; residual activity (CAMK2D (human)): 97.3%; residual activity (EGFR (human)): 97.4%; residual activity (HIPK4 (human)): 102%; residual activity (IRAK4 (human)): 93.2%; residual activity (PRKCZ (human)): 97.1%; residual activity (TGFBR2 (human)): 116% |
